Source: paper PMC12386367, “Importin α3 Is Tolerant to Nuclear Localization Signal Chirality” (International Journal of Molecular Sciences, 2025)
Non-standard residues stand in square brackets, D forms with d. Residues, ends and D or L forms follow the SMILES beside them. d(pT) = C[C@H](OP(=O)(O)O)[C@@H](N)C(=O)O

Assays:
[1] = Translational diffusion NMR (DOSY) of NLS peptides; assay type: physicochemical; conditions: ~100 μM peptide, 50 mM deuterated Tris pH 7.2, 100% D2O, 10 °C
Excerpt: For the four peptides, we measured the experimental value of D for dioxane ranging from (1.2 ± 0.1) × 10^−5 to (1.05 ± 0.02) × 10^−5 cm^2 s^−1 in each solution containing the corresponding peptide; we assumed a hydrodynamic radius of 2.12 Å for dioxane (Table 1) under any condition. […] Furthermore, the values of D were similar for the D- and L-peptides, and the latter were already being described as disordered. Thus, we can conclude that the four D-peptides were monomeric and disordered, like the L-form counterparts, and, then, there was no difference in the hydrodynamic properties of the peptides by changing the enantiomeric nature of the residues.
The NMR spectra were acquired at 10 °C on a Bruker Avance III spectrometer (Bruker GmbH, Mannheim, Germany), equipped with a triple-resonance probe and z-pulse field gradients. All NMR experiments with D-NLS peptides were carried out in 50 mM deuterated Tris buffer (not corrected for isotope effects), pH 7.2. Spectra were calibrated with TSP, by considering pH-dependent changes in its chemical shifts; probe temperature was calibrated with pure methanol.
The typical D-NLS peptide concentrations in DOSY experiments were ~100 μM, and 128 scans were acquired, in which the gradient strength was varied linearly in sixteen steps, between 2 and 95% of the total power of the gradient coil. Measurements of the translational self-diffusion coefficient, D, were performed with the pulsed-gradient spin-echo sequence in the presence of 100% D2O. Details on the experimental conditions and fitting of the resulting curves have been described elsewhere. Gradient strength was calibrated by using the value of D for the residual proton water signal in a sample containing 100% D2O, in a 5 mm tube [23]. Gradient length was 2.5 ms; the time between the two pulse gradients in the sequence was 250 ms; and the recovery delay between the bipolar gradients was 100 μs. The signals from methyl groups between 0.8 and 1.0 ppm were used for peak integration, for all the D-NLS peptides. A final concentration of 1% of dioxane, which was assumed to have a hydrodynamic radius Rh of 2.12 Å [23], was added to the solution of each peptide.

[2] = target: T1, Impα3 (Homo sapiens, UniProt O00629); test: Biolayer interferometry (BLI) binding to Impα3; conditions: peptide 1–10 μM, 25 °C; for kon: BLItz, Impα3 immobilized via His-tag (0.25 μM), 10 × kinetics buffer, error from pseudo-first order fit, at least two repeats, read-out: kon; for koff: Impα3 immobilized via His-tag, error from pseudo-first order fit (Equation 5)
T1 construct: Human importin α3 isoform (residues 1–521); made in house
T1 sequence (O00629 1-521): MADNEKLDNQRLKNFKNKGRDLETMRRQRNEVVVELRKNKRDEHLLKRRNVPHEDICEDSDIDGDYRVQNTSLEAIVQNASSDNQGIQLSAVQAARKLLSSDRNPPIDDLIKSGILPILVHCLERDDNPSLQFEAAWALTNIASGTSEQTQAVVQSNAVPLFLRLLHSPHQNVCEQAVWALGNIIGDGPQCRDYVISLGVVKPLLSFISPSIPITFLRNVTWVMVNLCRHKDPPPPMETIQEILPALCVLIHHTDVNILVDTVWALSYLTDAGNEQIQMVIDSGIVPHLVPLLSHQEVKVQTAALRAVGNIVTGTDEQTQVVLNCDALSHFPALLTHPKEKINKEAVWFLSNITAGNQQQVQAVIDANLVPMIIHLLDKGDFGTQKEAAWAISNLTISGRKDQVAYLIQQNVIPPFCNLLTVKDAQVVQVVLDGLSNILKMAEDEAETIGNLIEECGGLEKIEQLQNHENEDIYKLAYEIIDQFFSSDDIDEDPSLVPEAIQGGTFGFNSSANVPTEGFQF
Description: (§1) The association (kon) and dissociation (koff) rate constants of the binding of D-NLS peptides to either Impα3 or ∆Impα3 were determined by using a BLItz system (ForteBio, Pall, Barcelona, Spain). The buffer used in the experiments was that recommended by the manufacturer. […] The peptide concentrations were in a range from 1 to 10 μM during the association step. The general scheme of the protein association/dissociation reactions in the BLItz system for the D-NLS peptides was as follows: 30 s of initial baseline acquisition with the 10 × kinetics buffer (provided by the manufacturer); 120 s of loading either Impα3 and ∆Impα3 into the biosensor; 30 s of baseline acquisition with the 10 × kinetics buffer; 120 s of association of each peptide to the biosensor (which had been previously loaded with the importin species); and 120 s of monitoring of the dissociation of each peptide from the biosensor. All experiments were carried out at 25 °C.
(§2) Fittings of the BLI sensorgrams was carried out by using KaleidaGraph, as previously described. The interferometry response during the association step, R(t) (measured in response units, RU), and the binding rate, dR(t)/dt, could be used to evaluate the kinetics of the formation of the complex between Impα3/∆Impα3 and each D-NLS, according to:(2) dR/dt=konD-NLSRmax−Rt−koffR(t) where Rmax is proportional to the total concentration of biosensor-bound importin species; and [D-NLS] represents the concentration of the corresponding D-NLS peptide.
(§3) In Equation (2), R(t) is given by:(3) Rt= Req−Reqe^(−kobs t−t0) where Req is the steady-state (or equilibrium) response obtained at infinite time, when dR(t)/dt = 0, and t0 = 180 s is the time at which the association step between biosensor-immobilized Impα3/∆Impα3 and D-NLS in the solution started. We fitted the experimentally obtained R(t) under any condition as:(4) Rt= Req−Reqe^−kobs t−t0−R’eq(t−t0) where R^′eq was included to consider the lineal drift observed at longer times.
(§4) The dissociation process was always fitted to a single exponential, with R(t) given by:(6) Rt=R1 e^(−kofft−t0)−R^″eq(t−t0) where t0 = 300 is the time at which the dissociation of the D-NLS from the biosensor-bound Impα3/∆Impα3 started in our experimental set-up, R1 is the response level when dissociation starts, and the parameter R^″eq considers the linear drift observed at longer times.
(§5) The experiments were repeated at least twice for each peptide with each importin species.

[3] = target: T2, ∆Impα3 (Homo sapiens, UniProt O00629); test: Biolayer interferometry (BLI) binding to ∆Impα3; conditions: peptide 1–10 μM, 25 °C; for kon: BLItz, ∆Impα3 immobilized via His-tag (0.25 μM), 10 × kinetics buffer, error from pseudo-first order fit, at least two repeats, read-out: kon; for koff: ∆Impα3 immobilized via His-tag, error from pseudo-first order fit (Equation 5)
T2 construct: IBB-depleted species of Impα3 (residues 64–521 of the intact protein); made in house
T2 sequence (O00629 64-521): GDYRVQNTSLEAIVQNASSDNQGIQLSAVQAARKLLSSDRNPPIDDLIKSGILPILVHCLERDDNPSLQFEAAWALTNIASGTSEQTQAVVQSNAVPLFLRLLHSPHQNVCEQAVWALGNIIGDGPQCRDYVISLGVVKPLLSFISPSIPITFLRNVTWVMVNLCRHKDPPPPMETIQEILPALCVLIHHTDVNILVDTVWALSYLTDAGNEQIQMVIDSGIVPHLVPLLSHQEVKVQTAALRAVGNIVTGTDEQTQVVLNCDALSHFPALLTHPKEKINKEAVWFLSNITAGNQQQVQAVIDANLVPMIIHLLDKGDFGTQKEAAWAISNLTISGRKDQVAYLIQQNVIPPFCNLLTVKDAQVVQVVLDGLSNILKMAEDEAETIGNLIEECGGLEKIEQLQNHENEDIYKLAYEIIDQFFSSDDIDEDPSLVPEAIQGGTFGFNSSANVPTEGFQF
Description: as §1, §2, §3, §4, §5

Row | Compound | Diffusion coefficient D [1] [cm^2 s^−1 × 10^6] | kon [2] [M⁻¹ s⁻¹] | koff [2] [s⁻¹] | kon [3] [M⁻¹ s⁻¹] | koff [3] [s⁻¹]
1 | CC(=O)N[C@H](Cc1ccc(O)cc1)C(=O)N[C@@H](C(=O)N[C@H](CC(N)=O)C(=O)N[C@H](CCCNC(=N)N)C(=O)N1CCC[C@@H]1C(=O)N[C@H](CO)C(=O)N1CCC[C@@H]1C(=O)NCC(=O)NCC(=O)N[C@H](Cc1c[nH]cn1)C(=O)N[C@H](CCC(=O)O)C(=O)N[C@H](CCCNC(=N)N)C(=O)N[C@H](CCCCN)C(=O)N[C@H](CC(C)C)C(=O)N[C@@H](C(=O)N[C@@H](C(=O)N[C@H](CCCCN)C(=O)N[C@H](CC(C)C)C(=O)N[C@H](CCC(N)=O)C(=O)N[C@H](CC(N)=O)C(=O)N[C@H](CO)C(=O)N[C@H](CCC(=O)O)C(N)=O)[C@H](C)OP(=O)(O)O)C(C)C)[C@H](C)O [D-NLS-NUPR1phospho] (Ac-[dY][dT][dN][dR][dP][dS][dP]GG[dH][dE][dR][dK][dL][dV][d(pT)][dK][dL][dQ][dN][dS][dE]-NH2) | 2.2 ± 0.2 | 10000 ± 3000 | 0.13 ± 0.02 | 6000 ± 1000 | 0.05 ± 0.01
2 | CC[C@@H](C)[C@@H](NC(=O)[C@@H](CCCCN)NC(=O)[C@@H](CCC(N)=O)NC(=O)[C@@H](CCC(N)=O)NC(=O)[C@@H](CCCCN)NC(=O)[C@@H](CCCCN)NC(=O)[C@@H](CCCCN)NC(=O)[C@@H](CCCCN)NC(=O)[C@H](NC(=O)CNC(=O)[C@@H](CCC(=O)O)NC(=O)[C@@H](Cc1ccccc1)NC(=O)[C@@H](CC(C)C)NC(=O)[C@@H](CC(C)C)NC(=O)[C@@H](C)NC(=O)[C@@H](CCC(=O)O)NC(=O)CNC(=O)[C@@H](Cc1c[nH]cn1)NC(=O)CNC(=O)[C@@H](CCC(=O)O)NC(=O)[C@@H](CC(N)=O)NC(=O)[C@@H](CCC(N)=O)NC(=O)[C@@H](CCC(N)=O)NC(=O)[C@@H](CCC(=O)O)NC(=O)[C@@H](CCC(N)=O)NC(=O)[C@@H](Cc1ccccc1)NC(=O)[C@@H](CC(C)C)NC(=O)[C@@H](CCCCN)NC(C)=O)[C@H](C)CC)C(N)=O [D-NLS-PADI] (Ac-[dK][dL][dF][dQ][dE][dQ][dQ][dN][dE]G[dH]G[dE][dA][dL][dL][dF][dE]G[dI][dK][dK][dK][dK][dQ][dQ][dK][dI]-NH2) | 1.0 ± 0.1 | 45000 ± 20000 | 0.6 ± 0.1 | 60000 ± 10000 | 0.37 ± 0.05
